# Measurements published in US9000162B2, “5,8-difluoro-4-(2-(4-(heteroaryloxy)-phenyl)ethylamino)quinazolines and their use as agrochemicals” (Dow AgroSciences LLC, priority 2008, dated 2015).
# How the values were obtained:
# Assay type in all cases: in vivo
# [1] = test system: Puccinia recondita tritici (PUCCRT); test: Leaf rust of wheat foliar protectant test; conditions: 200 ppm foliar, inoculated one day after treatment, read-out: Activity against fungal diseases PUCCRT
# Method: (§1) The plants were inoculated with the fungus one day after treatment. ***=80-100% control; **=50-79% control; *=0-49% control. It will be understood by those in the art that the efficacy of the compounds against the foregoing fungi establishes the general utility of the compounds as fungicides. The activity of the compounds as effective fungicides was determined by applying the compounds to plants and observing control of fungal disease. […] All plants were inoculated with spores of the fungus the day after treatment, then incubated in an environment conducive to disease development. Disease severity was evaluated 4 to 25 days later, depending on the speed of disease development. The following experiments were performed in the laboratory to determine the fungicidal efficacy of the compounds of the invention. […] Each pot contained 3-8 seedlings. These plants were sprayed until wet with the formulated test compounds. On the following day, the leaves were inoculated with an aqueous spore suspension of Puccinia recondita tritici and the plants were kept in high humidity overnight to permit spores to germinate and infect the leaf. The plants were then transferred to a greenhouse until disease developed on untreated control plants. Table 1 presents the activity of typical compounds of the present invention when evaluated in these experiments. The effectiveness of the test compounds at controlling disease when sprayed on leaves was determined by assessing the severity of disease on treated plants, then converting the severity to percent control based on the level of disease on untreated, inoculated plants.
# [2] = test system: Magnaporthe grisea = Pyricularia oryzae (PYRIOR); test: whole plant or invertebrate; conditions: foliar, read-out: Activity against fungal diseases PYRIOR
# [3] = test system: Pseudoperonospora cubensis (PSPECU); test: Cucumber downy mildew foliar protectant test; conditions: 200 ppm foliar, inoculated one day after treatment, read-out: Activity against fungal diseases PSPECU
# Method: The plants were inoculated with the fungus one day after treatment. ***=80-100% control; **=50-79% control; *=0-49% control. It will be understood by those in the art that the efficacy of the compounds against the foregoing fungi establishes the general utility of the compounds as fungicides. The activity of the compounds as effective fungicides was determined by applying the compounds to plants and observing control of fungal disease. […] All plants were inoculated with spores of the fungus the day after treatment, then incubated in an environment conducive to disease development. Disease severity was evaluated 4 to 25 days later, depending on the speed of disease development. The following experiments were performed in the laboratory to determine the fungicidal efficacy of the compounds of the invention. Cucumber Downy Mildew (Causal Agent Pseudoperonospora cubensis; Bayer Code […]): Cucumber plants (variety “Bush Champion' or 'Bush Pickle Hybrid') were grown from seed in a soil-less peat-based potting mixture (Metromix) until the first true leaf was 20-80% expanded. Each pot contained 1 seedling. These plants were sprayed until wet with the formulated test compound. On the following day, the leaves were inoculated with an aqueous suspension of downy mildew sporangia and the plants were kept in high humidity for one day to permit sporangia to germinate and infect the leaf. The plants were then incubated in a growth chamber until disease developed on untreated control plants. Table 1 presents the activity of typical compounds of the present invention when evaluated in these experiments. The effectiveness of the test compounds at controlling disease when sprayed on leaves was determined by assessing the severity of disease on treated plants, then converting the severity to percent control based on the level of disease on untreated, inoculated plants.
# [4] = test system: Septoria tritici (SEPTTR); test: Septoria blotch of wheat foliar protectant test; conditions: Zymoseptoria tritici, read-out: Activity against fungal diseases SEPTTR; for pest or weed control at 25 ppm: foliar, Tested at 25 ppm (footnote b); for pest or weed control at 200 ppm: 200 ppm foliar, inoculated one day after treatment
# Method: as §1, with “3-10” for “3-8”, “compound.” for “compounds.”, “Septoria” for “Puccinia recondita”, “(one day in a dark dew chamber followed by three days in a lighted dew chamber)” for “overnight”
structure (smiles),measurement,setting,value
Cc1cc(CCNc2ncnc3c(F)ccc(F)c23)ccc1Oc1cc(C(F)(F)F)ncn1 [Compound 117],pest or weed control at 200 ppm,[1],80 to 100%
same,pest or weed control at 200 ppm,[2],80 to 100%
same,pest or weed control at 200 ppm,[3],80 to 100%
same,pest or weed control at 25 ppm,[4],80 to 100%
C=Cc1cc(CCNc2ncnc3c(F)ccc(F)c23)ccc1Oc1cc(C(F)(F)F)ccn1 [Compound 65],pest or weed control at 200 ppm,[1],80 to 100%
same,pest or weed control at 200 ppm,[2],80 to 100%
same,pest or weed control at 200 ppm,[3],80 to 100%
same,pest or weed control at 200 ppm,[4],80 to 100%
COc1ccc(CCNc2ncnc3c(F)cc(F)c(F)c23)cc1Cl [Compound 86],pest or weed control at 200 ppm,[1],0 to 49%
same,pest or weed control at 200 ppm,[2],0 to 49%
same,pest or weed control at 200 ppm,[3],80 to 100%
same,pest or weed control at 200 ppm,[4],0 to 49%
Cc1cc(C(F)(F)F)cc(Oc2ccc(CCNc3ncnc4c(F)ccc(F)c34)cc2)n1 [Compound 7],pest or weed control at 200 ppm,[1],80 to 100%
same,pest or weed control at 200 ppm,[2],80 to 100%
same,pest or weed control at 200 ppm,[3],80 to 100%
same,pest or weed control at 200 ppm,[4],80 to 100%
COc1cc(CCNc2ncnc3c(F)ccc(F)c23)ccc1Oc1ccnc(C(F)(F)F)n1 [Compound 113],pest or weed control at 200 ppm,[1],80 to 100%
same,pest or weed control at 200 ppm,[2],80 to 100%
same,pest or weed control at 200 ppm,[3],80 to 100%
same,pest or weed control at 25 ppm,[4],80 to 100%
N#Cc1c(Cl)cncc1Oc1ccc(CCNc2ncnc3c(F)ccc(F)c23)cc1 [Compound 129],pest or weed control at 200 ppm,[1],80 to 100%
same,pest or weed control at 200 ppm,[2],80 to 100%
same,pest or weed control at 200 ppm,[3],80 to 100%
same,pest or weed control at 200 ppm,[4],50 to 79%
Nc1c(F)c(F)nc(Oc2ccc(CCNc3ncnc4c(F)ccc(F)c34)cc2)c1F [Compound 97],pest or weed control at 200 ppm,[1],80 to 100%
same,pest or weed control at 200 ppm,[2],80 to 100%
same,pest or weed control at 200 ppm,[3],80 to 100%
same,pest or weed control at 200 ppm,[4],50 to 79%
COc1cc(CCNc2ncnc3c(F)ccc(F)c23)ccc1Oc1ccnc(C(F)(F)F)c1Cl [Compound 78],pest or weed control at 200 ppm,[1],80 to 100%
same,pest or weed control at 200 ppm,[2],80 to 100%
same,pest or weed control at 200 ppm,[3],80 to 100%
same,pest or weed control at 200 ppm,[4],80 to 100%
Oc1cc(CCNc2ncnc3c(F)ccc(F)c23)ccc1Oc1cc(C(F)(F)F)ccn1 [Compound 56],pest or weed control at 200 ppm,[1],80 to 100%
same,pest or weed control at 200 ppm,[2],80 to 100%
same,pest or weed control at 200 ppm,[3],80 to 100%
same,pest or weed control at 200 ppm,[4],50 to 79%
CC(Nc1ncnc2c(F)ccc(F)c12)c1ccccc1 (centres unmarked) [Compound 119],pest or weed control at 200 ppm,[1],80 to 100%
same,pest or weed control at 200 ppm,[2],80 to 100%
same,pest or weed control at 200 ppm,[3],80 to 100%
same,pest or weed control at 200 ppm,[4],80 to 100%
COc1cc(CCNc2ncnc3c(F)ccc(F)c23)ccc1Oc1c(Cl)cnc(C(F)(F)F)c1Cl [Compound 69],pest or weed control at 200 ppm,[1],80 to 100%
same,pest or weed control at 200 ppm,[2],80 to 100%
same,pest or weed control at 200 ppm,[3],80 to 100%
same,pest or weed control at 200 ppm,[4],80 to 100%
COc1cc(C(F)(F)F)cc(Oc2ccc(CCNc3ncnc4c(F)ccc(F)c34)cc2C)n1 [Compound 29],pest or weed control at 200 ppm,[1],80 to 100%
same,pest or weed control at 200 ppm,[2],50 to 79%
same,pest or weed control at 200 ppm,[3],80 to 100%
same,pest or weed control at 200 ppm,[4],80 to 100%
COc1cc(CCNc2ncnc3c(F)ccc(F)c23)ccc1Oc1cc(C(F)(F)F)cc(C)n1 [Compound 44],pest or weed control at 200 ppm,[1],80 to 100%
same,pest or weed control at 200 ppm,[2],0 to 49%
same,pest or weed control at 200 ppm,[3],80 to 100%
same,pest or weed control at 200 ppm,[4],80 to 100%
Fc1cc(C(F)(F)F)cnc1Oc1ccc(CCNc2ncnc3c(F)ccc(F)c23)cc1 [Compound 5],pest or weed control at 200 ppm,[1],80 to 100%
same,pest or weed control at 200 ppm,[2],80 to 100%
same,pest or weed control at 200 ppm,[3],80 to 100%
same,pest or weed control at 25 ppm,[4],80 to 100%
COc1cc(CCNc2ncnc3c(F)ccc(F)c23)ccc1O [Compound 14],pest or weed control at 200 ppm,[1],0 to 49%
same,pest or weed control at 200 ppm,[2],0 to 49%
same,pest or weed control at 200 ppm,[3],50 to 79%
same,pest or weed control at 25 ppm,[4],0 to 49%
COc1cc(C)c(CCNc2ncnc3c(F)ccc(F)c23)cc1C [Compound 17],pest or weed control at 200 ppm,[1],80 to 100%
same,pest or weed control at 200 ppm,[2],50 to 79%
same,pest or weed control at 200 ppm,[3],80 to 100%
same,pest or weed control at 200 ppm,[4],0 to 49%
Oc1ccc(CCNc2ncnc3c(F)cc(F)c(F)c23)cc1Cl [Compound 88],pest or weed control at 200 ppm,[1],0 to 49%
same,pest or weed control at 200 ppm,[2],0 to 49%
same,pest or weed control at 200 ppm,[3],80 to 100%
same,pest or weed control at 200 ppm,[4],0 to 49%
COc1ccc(CCNc2ncnc3c(F)cc(F)c(F)c23)cc1C [Compound 68],pest or weed control at 200 ppm,[1],0 to 49%
same,pest or weed control at 200 ppm,[2],80 to 100%
same,pest or weed control at 200 ppm,[3],50 to 79%
same,pest or weed control at 200 ppm,[4],0 to 49%
Fc1ccc(F)c2c(NCCc3ccc(Oc4ccnc(C(F)(F)F)n4)cc3)ncnc12 [Compound 114],pest or weed control at 200 ppm,[1],80 to 100%
same,pest or weed control at 200 ppm,[2],80 to 100%
same,pest or weed control at 200 ppm,[3],80 to 100%
same,pest or weed control at 25 ppm,[4],50 to 79%
COc1cc(CCNc2ncnc3c(F)ccc(F)c23)ccc1Oc1ccc(C(F)(F)F)cn1 [Compound 52],pest or weed control at 200 ppm,[1],80 to 100%
same,pest or weed control at 200 ppm,[2],80 to 100%
same,pest or weed control at 200 ppm,[3],80 to 100%
same,pest or weed control at 200 ppm,[4],80 to 100%
Fc1ccc(F)c2c(NC3Cc4ccc(Oc5cc(C(F)(F)F)ccn5)cc4C3)ncnc12 (centres unmarked) [Compound 110],pest or weed control at 200 ppm,[1],80 to 100%
same,pest or weed control at 200 ppm,[2],80 to 100%
same,pest or weed control at 200 ppm,[3],80 to 100%
same,pest or weed control at 200 ppm,[4],80 to 100%
COc1cc(CCNc2ncnc3c(F)ccc(F)c23)ccc1Oc1c(Cl)cnc(C(Cl)(Cl)Cl)c1Cl [Compound 89],pest or weed control at 200 ppm,[1],80 to 100%
same,pest or weed control at 200 ppm,[2],50 to 79%
same,pest or weed control at 200 ppm,[3],50 to 79%
same,pest or weed control at 200 ppm,[4],50 to 79%
[O-][n+]1ccc(Oc2ccc(CCNc3ncnc4c(F)ccc(F)c34)cc2)c(C(F)(F)F)c1 [Compound 84],pest or weed control at 200 ppm,[1],80 to 100%
same,pest or weed control at 200 ppm,[2],80 to 100%
same,pest or weed control at 200 ppm,[3],80 to 100%
same,pest or weed control at 200 ppm,[4],80 to 100%
CC(F)(F)c1ccnc(Oc2ccc(CCNc3ncnc4c(F)ccc(F)c34)cc2)c1 [Compound 12],pest or weed control at 200 ppm,[1],80 to 100%
same,pest or weed control at 200 ppm,[2],80 to 100%
same,pest or weed control at 200 ppm,[3],80 to 100%
same,pest or weed control at 200 ppm,[4],80 to 100%
COc1cc(CCNc2ncnc3c(F)cc(F)c(F)c23)ccc1Oc1cc(C(F)(F)F)ccn1 [Compound 34],pest or weed control at 200 ppm,[1],80 to 100%
same,pest or weed control at 200 ppm,[2],80 to 100%
same,pest or weed control at 200 ppm,[3],80 to 100%
same,pest or weed control at 200 ppm,[4],80 to 100%
COc1cc(CCNc2ncnc3c(F)ccc(F)c23)ccc1Oc1ncc(F)c(C(F)(F)F)c1F [Compound 53],pest or weed control at 200 ppm,[1],80 to 100%
same,pest or weed control at 200 ppm,[2],80 to 100%
same,pest or weed control at 200 ppm,[3],80 to 100%
same,pest or weed control at 200 ppm,[4],80 to 100%
Cc1cc(CCNc2ncnc3c(F)ccc(F)c23)ccc1O [Compound 24],pest or weed control at 200 ppm,[1],0 to 49%
same,pest or weed control at 200 ppm,[2],0 to 49%
same,pest or weed control at 200 ppm,[3],0 to 49%
same,pest or weed control at 200 ppm,[4],0 to 49%
COc1cc(CCNc2ncnc3c(F)ccc(F)c23)ccc1Oc1cc(C(F)(F)F)cc[n+]1[O-] [Compound 59],pest or weed control at 200 ppm,[1],80 to 100%
same,pest or weed control at 200 ppm,[2],80 to 100%
same,pest or weed control at 200 ppm,[3],80 to 100%
same,pest or weed control at 200 ppm,[4],80 to 100%
COc1cc(CCNc2ncnc3c(F)ccc(F)c23)ccc1Oc1c(F)cnc(C(F)(F)F)c1F [Compound 50],pest or weed control at 200 ppm,[1],80 to 100%
same,pest or weed control at 200 ppm,[2],80 to 100%
same,pest or weed control at 200 ppm,[3],80 to 100%
same,pest or weed control at 200 ppm,[4],80 to 100%
